According to US20260102383A1, “LPAR1 Inhibitors” (AbbVie Inc., priority 2024, published 2026):

Target: T1, human LPAR1 (Homo sapiens, UniProt Q92633)
T1 construct: host or cells: TangoEDG2-bla U2OS cells
Assay: Arrestin assay (Arrestin Reporter EDG2-bla U2OS), inhibition of LPA-stimulated signal
Assay type: cell-based
Conditions: TangoEDG2-bla U2OS cells expressing human LPAR1; 0.25 μM LPA; read-out: Arrestin Reporter EDG2-bla U2OS Human Merged IC50
Procedure, shortened: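 TangoEDG2-bla U2OS cells (1×10^4/well, plated 18-20 h) were preincubated 1 h at 37 °C with compound (12-point, 3-fold, 10 μM to 0.00006 μM), then stimulated 3 h with 0.25 μM LPA final. LiveBLAzer FRET B/G 460/530 nm emission ratio gave % inhibition; IC50 from 4-parameter variable-slope fit.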

T1 sequence (Q92633 whole entry): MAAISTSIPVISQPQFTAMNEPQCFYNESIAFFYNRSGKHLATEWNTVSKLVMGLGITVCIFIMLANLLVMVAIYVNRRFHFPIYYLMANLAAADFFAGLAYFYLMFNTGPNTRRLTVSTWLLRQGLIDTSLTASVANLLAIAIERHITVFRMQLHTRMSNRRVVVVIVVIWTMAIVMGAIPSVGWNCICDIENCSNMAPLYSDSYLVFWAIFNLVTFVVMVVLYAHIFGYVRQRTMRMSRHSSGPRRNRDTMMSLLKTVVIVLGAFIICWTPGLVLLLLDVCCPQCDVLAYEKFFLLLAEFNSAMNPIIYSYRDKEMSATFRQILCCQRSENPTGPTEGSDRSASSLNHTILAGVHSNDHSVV

Row | Compound | IC50 [nM]
1 | CC(C)c1ccnn1C1(C(=O)Nc2ccc(Cl)cc2OC(F)F)CCN([C@H]2C[C@@]3(C[C@@H]3C(=O)O)C2)CC1 [Compound 127, (1S,3r,5R)-5-[4-[[4-chloro-2-(difluoromethoxy)phenyl]carbamoyl]-4-(5-isopropylpyrazol-1-yl)-1-piperidyl]spiro[2.3] hexane-2-carboxylic acid] | 31.9
2 | COc1cnn(C2(C(=O)Nc3ccc(Cl)cc3OC(F)F)CCN(CC3(C(=O)O)CCOCC3)CC2)c1C(C)C [Compound 81, 4-[[4-[[4-chloro-2-(difluoromethoxy)phenyl]carbamoyl]-4-(5-isopropyl-4-methoxy-pyrazol-1-yl)-1-piperidyl]methyl]tetrahydropyran-4-carboxylic acid] | 43
3 | COC[C@@H](CN1CCC(C(=O)Nc2ccc(Cl)cc2OC(F)F)(n2ncc(Cl)c2C(C)C)CC1)C(=O)O [Compound 206, (2R)-2-[[4-[[4-chloro-2-(difluoromethoxy)phenyl]carbamoyl]-4-(4-chloro-5-isopropyl-pyrazol-1-yl)-1-piperidyl]methyl]-3-methoxy-propanoic acid] | 16.9
4 | COc1cnn(C[C@H](CN2CCC(C(=O)Nc3ccc(Cl)cc3OC(F)F)(n3nccc3C(C)C)CC2)C(=O)O)c1 [Compound 202, (2S)-2-[[4-[[4-chloro-2-(difluoromethoxy)phenyl]carbamoyl]-4-(5-isopropylpyrazol-1-yl)-1-piperidyl]methyl]-3-(4-methoxypyrazol-1-yl)propanoic acid] | 46
5 | CC(C)c1ccnn1C1(C(=O)Nc2ccc(Cl)cc2OC(F)F)CCN(CC2(C(=O)O)CCCO2)CC1 (centres unmarked) [Compound 13, 2-[[4-[[4-chloro-2-(difluoromethoxy)phenyl]carbamoyl]-4-(5-isopropylpyrazol-1-yl)-1-piperidyl]methyl] tetrahydrofuran-2-carboxylic acid] | 11.2
6 | CC(C)c1ccnn1C1(C(=O)Nc2ccc(Cl)cc2OC(F)F)CCN(C[C@H](COCC(F)(F)F)C(=O)O)CC1 [Compound 234, (2R)-2-[[4-[[4-chloro-2-(difluoromethoxy)phenyl]carbamoyl]-4-(5-isopropylpyrazol-1-yl)-1-piperidyl]methyl]-3-(2,2,2-trifluoroethoxy)propanoic acid] | 9.54
7 | CC(C)c1ccnn1C1(C(=O)Nc2ccc(Cl)cc2OC(F)F)CCN(CC2(C(=O)O)CCC(O)CC2)CC1 (centres unmarked) [Compound 34, 1-[[4-[[4-chloro-2-(difluoromethoxy)phenyl]carbamoyl]-4-(5-isopropylpyrazol-1-yl)-1-piperidyl]methyl]-4-hydroxy-cyclohexanecarboxylic acid] | 33.3
8 | CC(C)c1ccnn1C1(C(=O)Nc2ccc(Cl)cc2OC(F)F)CCN(C[C@]2(C(=O)O)CCOC(C)(C)C2)CC1 [Compound 173, (4S)-4-[[4-[[4-chloro-2-(difluoromethoxy)phenyl]carbamoyl]-4-(5-isopropylpyrazol-1-yl)-1-piperidyl]methyl]-2,2-dimethyl-tetrahydropyran-4-carboxylic acid] | 31
9 | CC(C)c1ccnn1C1(C(=O)Nc2ccc(Cl)cc2OC(F)F)CCN(CC2(C(=O)O)CCCCC2)CC1 [Compound 42, 1-[[4-[[4-chloro-2-(difluoromethoxy)phenyl]carbamoyl]-4-(5-isopropylpyrazol-1-yl)-1-piperidyl]methyl]cyclohexanecarboxylic acid] | 19.1
10 | C=CC(=O)N1CCC(CN2CCC(C(=O)Nc3ccc(Cl)cc3OC(F)F)(n3nccc3C(C)C)CC2)(C(=O)O)CC1 [Compound 7, 4-[[4-[[4-chloro-2-(difluoromethoxy)phenyl]carbamoyl]-4-(5-isopropylpyrazol-1-yl)-1-piperidyl]methyl]-1-prop-2-enoyl-piperidine-4-carboxylic acid] | 50.8
11 | CCC(=O)N1CC[C@@](CN2CCC(C(=O)Nc3ccc(Cl)cc3OC(F)F)(n3nccc3C(C)C)CC2)(C(=O)O)C1 [Compound 100, (3S)-3-[[4-[[4-chloro-2-(difluoromethoxy)phenyl]carbamoyl]-4-(5-isopropylpyrazol-1-yl)-1-piperidyl]methyl]-1-propanoyl-pyrrolidine-3-carboxylic acid] | 78.5
12 | CC(C)c1ccnn1C1(C(=O)Nc2ccc(Cl)cc2OC(F)F)CCN(CC2(C(=O)O)CC23CCOCC3)CC1 (centres unmarked) [Compound 73, 2-[[4-[[4-chloro-2-(difluoromethoxy)phenyl]carbamoyl]-4-(5-isopropylpyrazol-1-yl)-1-piperidyl]methyl]-6-oxaspiro[2.5]octane-2-carboxylic acid] | 37.2
13 | CC(C)c1ccnn1C1(C(=O)Nc2ccc(Cl)cc2OC(F)F)CCN([C@H]2C[C@@H](CC(=O)O)C2)CC1 [Compound 94, (1s,3s)-2-[3-[4-[[4-chloro-2-(difluoromethoxy)phenyl]carbamoyl]-4-(5-isopropylpyrazol-1-yl)-1-piperidyl]cyclobutyl] acetic acid] | 40.8
14 | CC(C)c1ccnn1C1(C(=O)Nc2ccc(Cl)cc2OC(F)F)CCN(C[C@H](C(=O)O)c2cccnc2)CC1 [Compound 25, (2R)-3-[4-[[4-chloro-2-(difluoromethoxy)phenyl]carbamoyl]-4-(5-isopropylpyrazol-1-yl)-1-piperidyl]-2-(3-pyridyl)propanoic acid] | 28
15 | CC(C)c1ccnn1C1(C(=O)Nc2ccc(Cl)cc2OC(F)F)CCN(C[C@@H](C(=O)O)[C@H]2CCOC2)CC1 (single isomer, unassigned) [Compound 149] | 34.5
16 | COc1ccc(C(C)(CN2CCC(C(=O)Nc3ccc(Cl)cc3OC(F)F)(n3nccc3C(C)C)CC2)C(=O)O)cc1 (centres unmarked) [Compound 50, 3-[4-[[4-chloro-2-(difluoromethoxy)phenyl]carbamoyl]-4-(5-isopropylpyrazol-1-yl)-1-piperidyl]-2-(4-methoxyphenyl)-2-methyl-propanoic acid] | 64.1
17 | COc1cnn([C@@H](CN2CCC(C(=O)Nc3ccc(Cl)cc3OC(F)F)(n3nccc3C(C)C)CC2)C(=O)O)c1 [Compound 225, (2S)-3-[4-[[4-chloro-2-(difluoromethoxy)phenyl]carbamoyl]-4-(5-isopropylpyrazol-1-yl)-1-piperidyl]-2-(4-methoxypyrazol-1-yl)propanoic acid] | 30.9
18 | CC(C)c1ccnn1C1(C(=O)Nc2ccc(Cl)cc2OC(F)F)CCN(CC2(C(=O)O)CC3(CCC3)C2)CC1 [Compound 31, 2-[[4-[[4-chloro-2-(difluoromethoxy)phenyl]carbamoyl]-4-(5-isopropylpyrazol-1-yl)-1-piperidyl]methyl]spiro[3.3] heptane-2-carboxylic acid] | 6.55
19 | CC(C)c1ccnn1C1(C(=O)Nc2ccc(Cl)cc2OC(F)F)CCN(CC2(C(=O)O)CCN(C(=O)O[C@H]3CCOC3)CC2)CC1 [Compound 109] | 94.9
20 | CC(C)c1c(F)cnn1C1(C(=O)Nc2ccc(Cl)cc2OC(F)F)CCN([C@H]2CO[C@@H](C(=O)O)C2)CC1 [Compound 214, (2R,4R)-4-[4-[[4-chloro-2-(difluoromethoxy)phenyl]carbamoyl]-4-(4-fluoro-5-isopropyl-pyrazol-1-yl)-1-piperidyl]tetrahydrofuran-2-carboxylic acid] | 75.8
